US9599759B2, “Patterned polarizing film and its production process” (Sumitomo Chemical Company, Limited, priority 2014, dated 2017)

Assay: Saturated solubility at 23° C. of each dichroic dye in certain solvents (LC quantification)
Format: physicochemical
Conditions: 24 hours agitation; for saturated solubility in ethanol: solvent ethanol; for saturated solubility in ethyl acetate: solvent ethyl acetate; for saturated solubility in isopropyl alcohol: solvent isopropyl alcohol; for saturated solubility in methanol: solvent methanol; for saturated solubility in propylene glycol 1-monomethyl ether 2-acetate: solvent propylene glycol 1-monomethyl ether 2-acetate; for saturated solubility in propylene glycol 1-monomethyl ether: solvent propylene glycol 1-monomethyl ether; for saturated solubility in tetrahydrofuran: solvent tetrahydrofuran
Description: [Measurement Method of Saturated Solubility]
This solution was sampled, and was dissolved together with 5 ml of a standard liquid in tetrahydrofuran to prepare a measurement solution. […] The standard liquid was prepared from 10 ml of hexylbenzene and 1000 ml of acetonitrile.
The liquid chromatograph (LC) measurement was carried out in the following condition.
Used column: KinetexC18, 2.6 μm, 100 mm×4.6 mm diameter
Column temperature: 40° C.
• (A liquid) 0.1%(v/v)—TFA/water • (B liquid) 0.1%(v/v)—TFA/acetonitrile 500/THF 50% • Gradient condition 0 min A liquid 60%, B liquid 40% • 30 min A liquid 0%, B liquid 100% • 35 min A liquid 0%, B liquid 100% • 35.1 min A liquid 60%, B liquid 40% • 45 min STOP TOTAL 45 min • Flow volume: 1.0 mL/min • Injection amount: 5 μL • Detection method: UV (254 nm)

saturated solubility in ethanol [% by mass] | saturated solubility in ethyl acetate [% by mass] | saturated solubility in isopropyl alcohol [% by mass] | saturated solubility in methanol [% by mass] | saturated solubility in propylene glycol 1-monomethyl ether 2-acetate [% by mass] | saturated solubility in propylene glycol 1-monomethyl ether [% by mass] | saturated solubility in tetrahydrofuran [% by mass] | Compound
0.003 | 0.059 | 0.002 | 0.001 | 0.077 | 0.028 | 0.33 | CCCCc1ccc(N=Nc2ccc(N=Nc3ccc(N4CCCC4)cc3)cc2)cc1 [dichroic dye 1]
0.001 | 1.3 | 0.043 | 0.001 | 0.89 | 0.336 | 4.5 | CCCCc1ccc(N=Nc2ccc(N=Nc3ccc(OCCC)cc3)cc2)cc1 [dichroic dye 2]
